Experimental data: US10118954B2, “Apelin analogues” (University of Ulster, priority 2014, dated 2018)

Columns and labels:
[1] = tested on: NIH Swiss mice fed a high-fat diet for 150 days; assay: Acute and delayed i.p. glucose tolerance test, blood glucose and plasma insulin; type: in vivo; settings: acute, Table 4
How it was run: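 Diet-induced obese-diabetic mice (high-fat diet 150 days, 18 h fasted) received i.p. glucose (18 mmol/kg) alone or with apelin analogues (25 nmol/kg), or analogues given 2, 8 or 16 h beforehand. Tail blood glucose and plasma insulin sampled at 0, 15, 30, 60, 105 min; n=8, mean±SEM.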

male NIH Swiss mice = assay: Acute effects of apelin analogues on voluntary food intake; type: in vivo; settings: 100 nmol/kg i.p., FIG. 37
Description: Saline and peptide analogues were administered by intraperitoneal injection and cumulative food intake was monitored at 30, 60, 90 and 120 min after feeding.
Mice were habituated to a daily feeding regime of 3 h/day by progressively reducing the daily feeding period over 3 weeks. This was performed to ensure mice consumed entire daily food intake within 3 h, thereby allowing “peptide” effects to be measured over the known eating period of mice. On days 1 to 7, mice were supplied with food from 10:00 h to 20:00 h, on days 8 to 14, food was presented from 10:00 h to 19:00 h and on days 15 to 21, food was restricted to the 3 h interval from 10:00 h to 13:00 h. This regime was continued throughout the experimental period.
Mice that were habituated to a 3 h daily feeding regime were administered with an i.p. injection of saline (0.9% w/v NaCl) or apelin peptide (1-100 nmol/kg bw) at 10:00 h (n=8). Immediately following injection, food was initially weighed and then presented to the mice and subsequently weighed at 30 min intervals up to 180 min.

[2] = Degradation of apelin peptides by plasma from fasted normal NIH Swiss mice (rp-HPLC, MALDI-TOF MS); type: in vitro ADME
How it was run: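 Apelin peptides were incubated with plasma from fasted normal NIH Swiss mice for 4 h, and the reaction was stopped with TFA. Products were separated by C-8 rp-HPLC with detection at 214 nm. Peak fractions were identified by MALDI-TOF MS, giving fragment molecular weights and retention times.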

[3] = peptide 25 nmol/kg i.p. with glucose 18 mmol/kg
[4] = plasma incubation 4 h, fragment identified by MALDI-TOF MS

## CSCC[C@H](NC(=O)[C@@H]1CCCN1C(=O)CNC(=O)[C@H](CCCCN)NC(=O)[C@H](Cc1cnc[nH]1)NC(=O)[C@H](CO)NC(=O)[C@H](CC(C)C)NC(=O)[C@H](CCCNC(=N)N)NC(=O)[C@@H]1CCCN1C(=O)[C@H](CCCNC(=N)N)NC(=O)[C@@H](N)CCC(N)=O)C(=O)N1CCC[C@H]1C(=O)N[C@@H](Cc1ccccc1)C(=O)O [Apelin-13, reference compound]
[1]
  Rank order on basis of anti-hyperglycaemic efficacy: 6
[1]; [3]
  Blood glucose as percent of glucose-alone control (lower = stronger glucose lowering): 92% ^
  Insulin secretion, where glucose alone = 100%: 111% ^
Male NIH Swiss mice; at 90 min
  Reduction of food intake: 16.7%
Male NIH Swiss mice; over 3 h
  Persistence of the food intake reduction: not sustainable over 3 h
[2]; NIH Swiss, pH 7.4, mouse plasma, 37° C., 4 h, mean ± SEM, 2 experiments, read-out: % intact peptide (4 h)
  remaining at 4 h, 263 µg/mL: 25.4 ± 1.5%
[2]; NIH Swiss, pH 7.4, mouse plasma, estimated by linear regression of % intact peptide against time, read-out: Half-life (t1/2) (converted)
  half-life at 263 µg/mL: 2.1 h
[2]; mouse plasma, 1 = most stable
  Rank order of stability: 14
[2]; [4]
  Degradation fragment, Peak 1: Apelin-13 (1-11)
  Degradation fragment, Peak 2: Apelin-13 (1-12)
